One series has as its target T1, Aβ42 fibrils (Homo sapiens, UniProt P05067).
T1 construct: commercially available β-amyloid peptide (1-42), human; purchased marck (so in the source) PP69-.025 mg
Briefly: TEM visualization of Aβ42 aggregation species. The format is biochemical. To be noted: 10 µM Aβ42, 50 µM TGR63, 48 h. Here is the method: To visualize the amyloid fibrils, the 10 µM of Aβ42 peptides were incubated alone, and in combination with 50 µM TGR63 for 48 h and spotted on mica surface and TEM grid to acquire the TEM images. FIG. 4(a) and FIG. 4(b) show the TEM images of Aβ42 aggregation species in the absence and presence of TGR63 respectively.

Another series deals with T2, Full length tau (Homo sapiens, UniProt P10636).
T2 construct: Full length tau (5 µM) was incubated with TGR63
Briefly: ThT fluorescence assay, inhibition of tau aggregation. The format is biochemical. Particulars: for ThT fluorescence signal compared with untreated controls (100%): tau 5 µM, heparin 1.25 µM, 72 h at 37° C. An excerpt: Tau is a microtubule-associated proteins that interacts with tubulin and stimulates its assembly into microtubules. The extent of phosphorylation regulates the activity of tau protein and the hyperphosphorylation diminishes its physiological function leading to several neuronal disorders like AD and tauopathies. The self-aggregation of hyperphosphorylated tau form intracellular neurofibrillary tangles (NFTs) and paired helical filaments (PHFs) that impairs the axonal functions and degenerates neuronal cells. Considering the prominent role of tau in AD pathology, the self-aggregation and deposition of hyperphosphorylated tau became a potential target to tackle AD and related tauopathies. Effect of TGR63 on tau aggregation was assessed. Full length tau (5 µM) was incubated with TGR63 (5 and 25 µM) for 72 h at 37° C. in the presence of aggregation inducer (heparin; 1.25 µM). The extent of aggregation of incubated samples were assessed by ThT fluorescence (λex= 442 nm and λem=482 nm) assay. FIG. 25 depicts the inhibition of tau (5 µM) aggregation in presence of TGR63. As expected, the ThT fluorescence signal was increased by ~15 folds with compare to only ThT, which confirmed the formation of pathogenic tau aggregates.

The next series concerns PC12 cells. Nature of the series: Rescue of PC12 cells from Aβ42 toxicity (MTT cell viability assay). To be noted: PC12 cells, Aβ42 20 µM + compound 40 µM, 24 h; Aβ42 alone 54%, untreated 100%. A general note: Tetrazolium assays rely on reduction of a dye to a coloured formazan, in cell work by metabolically active cells.

The structures appear in SMILES notation.

T2 sequence (P10636 1-441 isoform P10636-8): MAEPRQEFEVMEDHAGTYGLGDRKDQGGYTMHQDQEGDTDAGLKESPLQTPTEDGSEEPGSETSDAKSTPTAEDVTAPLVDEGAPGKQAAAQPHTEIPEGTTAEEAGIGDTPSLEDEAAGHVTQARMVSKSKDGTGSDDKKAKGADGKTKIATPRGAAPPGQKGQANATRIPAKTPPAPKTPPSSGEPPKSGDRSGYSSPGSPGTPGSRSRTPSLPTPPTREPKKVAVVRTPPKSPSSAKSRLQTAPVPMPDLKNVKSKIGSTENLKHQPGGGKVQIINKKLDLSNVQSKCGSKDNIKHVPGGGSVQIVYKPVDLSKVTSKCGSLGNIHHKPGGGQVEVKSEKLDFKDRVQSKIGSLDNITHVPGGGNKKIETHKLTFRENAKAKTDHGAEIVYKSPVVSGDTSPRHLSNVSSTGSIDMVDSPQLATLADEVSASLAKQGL
T1 sequence (P05067 672-713 limits assumed): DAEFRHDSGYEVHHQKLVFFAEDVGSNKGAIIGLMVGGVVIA
Method for PC12 cells: A 96-well plate was used to culture the cells (15,000 per well) with RPMI media (10% fetal bovine serum (FBS), 5% horse serum (HS,), and 1% pen-strep (PS)) at 37° C. temperature in a 5% CO2 atmosphere. Then the media was exchanged with low serum (2% FBS) media and monomeric Aβ42 was added in the absence and presence of NMI compounds and incubated for 24 h.
The structure-activity relationship (SAR) of NMI compounds towards rescuing PC12 cells from Aβ toxicity was investigated. […] Each experiment was repeated three times (n = 3), and error bars represent the standard deviation (SD).
An Alzheimer’s disease-like environment was mimicked by exposing the cultured PC12 cells to 20 µM of Aβ42 fibrils, which formed cytotoxic aggregation species in the growth media.

Usually cell viability stands for a read-out of living cells in per cent, often relative to untreated cells. In the case of `CN(C)c1ccc(C#Cc2ccc3c4c(cccc24)C(=O)N(CC[N+](C)(C)C)C3=O)cc1` [TGR63, 2-(6-((4-(dimethylamino)phenyl)ethynyl)-1,3-dioxo-1H-benzo[de]isoquinolin-2(3H)-yl)-N,N,N-trimethylethan-1-aminium], the “intertwined structure of Aβ42 fibrils (TEM)” value at Aβ42 fibrils is reported as “disrupted”. In addition, the entries for the “ThT fluorescence signal compared with untreated controls (100%)” value on Full length tau (TGR63 5 µM) and at Full length tau (TGR63 25 µM) were ~ 72% and around 52%, respectively. The “reduction of tau aggregates” value on Full length tau (tau:TGR63 1:1) is ~ 28%; at Full length tau (tau:TGR63 1:5), around 48%. Besides, in the series on PC12 cells, the cell viability is listed as 80%.

The values are drawn from patent publication US20230331679A1, “NAPHTHALENE MONOIMIDE COMPOUNDS AND METHODS THEREOF” (JAWAHARLAL NEHRU CENTRE FOR ADVANCED SCIENTIFIC RESEARCH, priority 2020, published 2023).
